Laboratory results published in patent EP0089426A1, “2-Amino-6-biphenylacetic acids” (A.H. ROBINS COMPANY, INCORPORATED, priority 1982, dated 1983).

Experiment: loss of righting test (muscle relaxant activity)
Assay type: in vivo

Nc1cccc(-c2ccccc2)c1CC(=O)O [Example 6-phenyl]
Percent loss of Righting reflex (Dose 50 mg/kg): 0% | Percent loss of Righting reflex (Dose 100 mg/kg): 100%
